In US12478601B2, “Dietary product devoid of at least two non essential amino acids” (CANCER RESEARCH TECHNOLOGY LIMITED, priority 2016, dated 2025):
“Also recorded” adds a separate entry of the source. Structures can show the parent of a compound that is named as a salt. Where two headings read alike, the source gives them in different places.

Assays:
[1] = test system: Colorectal and breast cancer cell lines; assay: Rescue from cysteine starvation by homocysteine supplementation; format: cell-based; details: homocysteine 0.2 mM & 0.8 mM, three days
Description: FIG. 39. […] Colorectal and breast cancer cell lines were grown in 24-well plates. Basal medium was formulated (based on RPMI medium) lacking cysteine but containing all 19 other essential and non-essential amino acids. This basal medium was supplemented with the stated components; cysteine 0.4 mM (+Cys), homocysteine 0.2 mM & 0.8 mM (HC) and grown for three days. Data are average of three wells. Error bars=STDEV.
Cells (4×10^4-1×10^5) were seeded in complete RPMI or DMEM medium in 24-well plates and allowed to adhere overnight. Cells were then washed with PBS and received assay medium supplemented with the stated amino acids/metabolites/drugs. Assay medium was formulated based on RPMI-1640 medium but lacking amino acids, which were added individually depending on the assay. Assay medium was also supplemented with additional vitamin B6 (20 uM), a co-factor for cysteine synthesis. Cells were counted (using Casy TT cell counter, Innovatis, Roche Applied Science) at the stated time-points, using a “time=0” plate to calculate relative cell number from time of medium change.

HCT116, DLD1 and SW480 = assay: Synergy score screen: chemotherapeutic agents in low serine, glycine, cysteine medium, cell counts
Description: Human cell lines HCT116, DLD1 and SW480 were seeded into 96-well plates either in complete medium containing serine, glycine and cysteine at 100 uM, with all other amino acids present, or low serine, glycine, cysteine (17-23 uM) medium with all other amino acids present. After 6 hours the stated chemotherapeutic agents were added (at doses of 0.01, 0.1 and 1 uM) to the wells and cells were incubated for a further 48 hours. After this time cells were formalin fixed and stained with a fluorescent nuclear stain for cell counting on an automated (Operetta) plate reader.

[2] = test system: lymphoma (based on Eμ-Myc expression)
Description: (§1) On normal chow, dietary amino acids are derived from whole proteins contained in the raw ingredients (wheat, wheatfeed, barley, de-hulled extracted toasted soya, maize and fish meal), with a small amount of purified lysine added as a supplement. […] “Diet 2-Control” contained all essential amino acids plus serine, glycine, glutamine, arginine, cystine, tyrosine, alanine, proline, glutamate and asparagine; “Diet 2-No Ser, No Gly/Diet 2-SG-free” was the same as Diet 2-Control, but without serine and glycine, with the other amino acid levels increased proportionally to achieve the same total amino acid content. “Diet 2” formulations were used for the Eμ-Myc-Tigar^−/− cohort (FIG. 19, panel f). All other cohorts received the previously published “Diet 1” formulations.
Mus Musculus cohorts were housed in a barriered facility proactive in environmental enrichment. The Eμ-Myc11, ApcMin/+, Lgr5creER; Apcf1/f1 and Pdx1cre; KrasG12D; Trp53f1/+ or Trp53R172H/+ mice/models have been previously described. Mixed male and female populations were used for each genotype. […] Eμ-Myc, and ApcMin/+ mice were at least 20 generations C57BL/6J. Eμ-Myc; Tigarf1/f1 mice were at least 50% C57BL/6J. Mice were put on the appropriate diet at the following times: Eμ-Myc pure bred 60 days post-natal, Eμ-Myc; Tigarf1/f1 55 days post-natal, ApcMin/+80 days post-natal, Lgr5creER; Apcf1/f1 7 days post-induction, Pdx1cre; KrasG12D; Trp53f1/+ or Trp53R172H/+60 days post-natal. […] For the metformin experiment, ApcMin/+ mice were given 200 mg/kg/day in their drinking water, starting 4 days after the diet change. All mice were taken to clinical end-point. […]
Samples were prepared in cold (−20° C.) lysis solvent (LS) consisting of methanol, acetonitrile, and H2O (50:30:20). […] Extracts were analysed on an LCMS platform consisting of an Accela 600 LC system and an Exactive mass spectrometer (Thermo Scientific). […] The raw data was analysed by LCquan (Thermo Scientific) and MZMine 2.10 for metabolite identification and quantification. […]

[3] = test system: intestinal tumour organoids derived from a VillincreER; APCfl/fl mouse; assay: Intestinal tumour organoid growth (diameter) +/− serine and glycine, +/− drug; format: cell-based; details: two days
Description: ADF=Advanced DMEM F/12, with 2 mM glutamine, 1% of penicillin/streptomycin solution, 0.1% of AlbuMAX I BSA, 10 mM HEPES (all Gibco/Life Technologies). Adenomas were removed from the small intestine of mice and cut into smaller pieces and washed 5 times with ice cold PBS. Pieces were incubated in 5 mM EDTA for 10 min at 4° C. on a roller. Crypts were washed 2 times with ice cold PBS to remove EDTA and incubated in 10× trypsin for 30 min at 37° C. The crypt-enriched supernatant was collected and washed approximately 5 times with 5 ml ADF through mechanical pipetting. Crypts were pelleted via centrifugation at 1,200 rpm for 5 min. Crypts were re-suspended in growth factor reduced matrigel (BD Biosciences) and 20 μl was plated per well in a 12-well plate. Matrigel was allowed to solidify for 30 min in a 37° C. incubator before appropriate ADF was added supplemented with 0.05 μg/ml EGF and 0.1 μg/ml noggin (Total volume per well 1 ml). Crypts were split by harvesting in ice cold PBS and spun down at 600 rpm for 3 min. Supernatant was aspirated and the pellet dissociated with 100 μl ice cold PBS using mechanical pipetting. 5 ml of PBS was added to tube and spun own at 600 rpm for 3 min, repeated until supernatant was clear of debris. The final crypt pellet was re-suspended with growth factor reduced matrigel and plated as before. For serine/glycine starvation, amino acid free Advanced DMEM F/12 (Gibco/Life Technologies) was used to construct assay medium for organoids with or without serine and glycine, containing all other amino acids. […]
Organoids were seeded in the stated media with or without metformin/daunorubicin (both from Sigma) and allowed to grow for two days. Images for size quantification (performed using ImageJ software) were taken using a light microscope then organoids were fixed in 4% paraformaldehyde. ROS damage was assessed by immunostaining organoids with Anti-malondialdehyde (MDA) (Abcam, ab6463), with Alexa Fluor 594 secondary antibody (Thermo Fisher Scientific). […]

[4] = test system: VillincreER; APCfl/fl organoids; assay: Organoid malondialdehyde (MDA) immunostaining (ROS damage); format: cell-based, mouse
Description: Organoids were seeded in the stated media with or without metformin/daunorubicin (both from Sigma) and allowed to grow for two days. Images for size quantification (performed using ImageJ software) were taken using a light microscope then organoids were fixed in 4% paraformaldehyde. ROS damage was assessed by immunostaining organoids with Anti-malondialdehyde (MDA) (Abcam, ab6463), with Alexa Fluor 594 secondary antibody (Thermo Fisher Scientific). Images were captured on an Olympus FV1000 inverted laser scanning confocal microscope and MDA staining was quantified using ImageJ software.

DLD1 and SW480 cells = assay: Metformin in vitro assay in APC-truncated colorectal cell lines, cell number; format: cell-based, Human; details: three days
Description: DLD1 and SW480 cells were seeded into 24-well plates and allowed to adhere overnight. Cells were washed with PBS and received either assay medium with or without serine and glycine, with or without metformin at the stated doses and allowed to grow for three days. Representative wells were photographed using a light microscope and counted using a Casy TT cell counter (FIG. 19, panel d). For the dose-response experiment (FIG. 23, panel e) cells were seeded in the same way, either in assay medium without serine and glycine, or in assay medium with low serine and glycine (10 uM), triplicate wells were counted after three days.

[5] = test system: intestinal tumours (APCMin/+)
Description: as §1
Mus Musculus cohorts were housed in a barriered facility proactive in environmental enrichment. The Eμ-Myc11, ApcMin/+, Lgr5creER; Apcf1/f1 and Pdx1cre; KrasG12D; Trp53f1/+ or Trp53R172H/+ mice/models have been previously described. Mixed male and female populations were used for each genotype. […] Eμ-Myc, and ApcMin/+ mice were at least 20 generations C57BL/6J. Eμ-Myc; Tigarf1/f1 mice were at least 50% C57BL/6J. Mice were put on the appropriate diet at the following times: Eμ-Myc pure bred 60 days post-natal, Eμ-Myc; Tigarf1/f1 55 days post-natal, ApcMin/+80 days post-natal, Lgr5creER; Apcf1/f1 7 days post-induction, Pdx1cre; KrasG12D; Trp53f1/+ or Trp53R172H/+60 days post-natal. […] For the metformin experiment, ApcMin/+ mice were given 200 mg/kg/day in their drinking water, starting 4 days after the diet change. All mice were taken to clinical end-point. Intestines from ApcMin/+ mice were fixed in methacarn (4:2:1 ratio of methanol, chloroform, acetic acid) to facilitate scoring of tumour number and area (width×length).
Samples were prepared in cold (−20° C.) lysis solvent (LS) consisting of methanol, acetonitrile, and H2O (50:30:20). […] Tissue samples were snap frozen and stored at −80° C. Prior to lysis, frozen samples were weighed then homogenized in 1 ml cold LS using a Precellys homogeniser (Bertin Technologies). Lysates were cleared of protein by centrifugation and lysate concentrations were normalized post-homogenisation with LS based on weight. Extracts were analysed on an LCMS platform consisting of an Accela 600 LC system and an Exactive mass spectrometer (Thermo Scientific). A SeQuant ZIC-pHILIC column (2.1 mm×150 mm, 5 μm) (Merck) was used to separate the metabolites with the mobile phase mixed by A=Ammonium carbonate 20 mM (adjusted to pH 9.4) and B=Acetonitrile. A gradient program starting at 20% of A and after 2 mins linearly increasing to 80% at 17 min was used followed by washing and re-equilibration steps. The total run time of the method was 25 min. The LC stream was desolvated and ionised in the HESI probe. The Exactive mass spectrometer was operated in full scan mode over a mass range of 75-1,000 m/z at a resolution of 50,000 with polarity switching. The raw data was analysed by LCquan (Thermo Scientific) and MZMine 2.10 for metabolite identification and quantification.
Mus Musculus cohorts were housed in a barrier facility proactive in environmental enrichment. […] Mixed male and female populations were used for each genotype.

[6] = average synergy score for three colorectal cells lines, drug at 0.01, 0.1 and 1 uM for 48 hours, low serine, glycine, cysteine (17-23 uM) vs complete medium (100 uM)

N[C@@H](CCS)C(=O)O [homocysteine]
rescue from cysteine starvation [1]: rescued from cysteine starvation; also recorded: significant rescue from cysteine starvation

CC[C@H](Nc1ncnc2[nH]cnc12)c1nc2cccc(F)c2c(=O)n1-c1ccccc1 [Idelalisib]
SYNERGY SCORE (HCT116, DLD1 and SW480; [6]): 4.05

CC(C)(C#N)c1cc(Cn2cncn2)cc(C(C)(C)C#N)c1 [Anastrozole]
SYNERGY SCORE (HCT116, DLD1 and SW480): 1.43

Nc1cccc2c1CN(C1CCC(=O)NC1=O)C2=O (stereo not drawn) [Lenalidomide]
SYNERGY SCORE (HCT116, DLD1 and SW480; [6]): 1.94

CC(C)C[C@H](NC(=O)[C@H](CCc1ccccc1)NC(=O)CN1CCOCC1)C(=O)N[C@@H](Cc1ccccc1)C(=O)N[C@@H](CC(C)C)C(=O)[C@@]1(C)CO1 [Carfilzomib]
SYNERGY SCORE (HCT116, DLD1 and SW480; [6]): 1.65

CS(=O)(=O)c1ccc(C(=O)Nc2ccc(Cl)c(-c3ccccn3)c2)c(Cl)c1 [Vismodegib]
SYNERGY SCORE (HCT116, DLD1 and SW480): 1.53

[H]/N=C(/N)N/C(=N/[H])NCCc1ccccc1 [phenformin]
tolerability ([2]; 100 mg/kg/day by gavage, mice on normal diet): tolerated | mice already recruited that did not succumb to toxicity ([2]; 100 mg/kg/day with serine and glycine deficient diet): 7/14 | survival, diet with phenformin compared to serine and glycine free diet alone ([2]; 100 mg/kg/day, not statistically significant): trend for improved survival

O=C(CCCCCCC(=O)Nc1ccccc1)NO [Vorinostat]
SYNERGY SCORE (HCT116, DLD1 and SW480; [6]): 4.94

Arsenic trioxide
SYNERGY SCORE (HCT116, DLD1 and SW480): 2.52

Cc1cc(Nc2ncc(Cl)c(Nc3ccccc3S(=O)(=O)C(C)C)n2)c(OC(C)C)cc1C1CCNCC1 [Ceritinib]
SYNERGY SCORE (HCT116, DLD1 and SW480; [6]): 2.56

Cc1ccc(C(=O)Nc2ccc(CN3CCN(C)CC3)c(C(F)(F)F)c2)cc1C#Cc1cnc2cccnn12 [Ponatinib]
SYNERGY SCORE (HCT116, DLD1 and SW480): 1.00

COc1cc(Nc2c(C#N)cnc3cc(OCCCN4CCN(C)CC4)c(OC)cc23)c(Cl)cc1Cl [Bosutinib]
SYNERGY SCORE (HCT116, DLD1 and SW480; [6]): 1.95

CO[C@H]1C[C@@H]2CC[C@@H](C)[C@@](O)(O2)C(=O)C(=O)N2CCCC[C@H]2C(=O)O[C@H]([C@H](C)C[C@@H]2CC[C@@H](OCCO)[C@H](OC)C2)CC(=O)[C@H](C)/C=C(\C)[C@@H](O)[C@@H](OC)C(=O)[C@H](C)C[C@H](C)/C=C/C=C/C=C/1C [Everolimus]
SYNERGY SCORE (HCT116, DLD1 and SW480; [6]): 3.33

COc1cccc2c1C(=O)c1c(O)c3c(c(O)c1C2=O)C[C@@](O)(C(=O)CO)C[C@@H]3O[C@H]1C[C@H](N)[C@@H](O)[C@H](C)O1 [Epirubicin hydrochloride]
SYNERGY SCORE (HCT116, DLD1 and SW480; [6]): 1.40

COc1cccc2c1C(=O)c1c(O)c3c(c(O)c1C2=O)C[C@@](O)(C(C)=O)C[C@@H]3O[C@H]1C[C@H](N)[C@H](O)[C@H](C)O1 [Daunorubicin]
tumour organoid growth ([3]; with serine & glycine starvation): complements serine and glycine starvation; also recorded: decrease tumour organoid growth | reactive oxygen species levels in tumour-organoids ([4]; with serine & glycine starvation, two days): increase reactive oxygen species levels

CNC(=O)c1cc(Oc2ccc(NC(=O)Nc3ccc(Cl)c(C(F)(F)F)c3)c(F)c2)ccn1 [Regorafenib]
SYNERGY SCORE (HCT116, DLD1 and SW480; [6]): 2.29

COc1cccc2c1C(=O)c1c(O)c3c(c(O)c1C2=O)C[C@@](O)(C(=O)CO)C[C@@H]3O[C@H]1C[C@H](N)[C@H](O)[C@H](C)O1 [Doxorubicin hydrochloride]
SYNERGY SCORE (HCT116, DLD1 and SW480; [6]): 1.76

CNC(=O)c1cc(Oc2ccc(NC(=O)Nc3ccc(Cl)c(C(F)(F)F)c3)cc2)ccn1 [Sorafenib]
SYNERGY SCORE (HCT116, DLD1 and SW480; [6]): 2.26

C/C=C1\NC(=O)[C@H]2CSSCC/C=C/[C@H](CC(=O)N[C@H](C(C)C)C(=O)N2)OC(=O)[C@H](C(C)C)NC1=O [Romidepsin]
SYNERGY SCORE (HCT116, DLD1 and SW480): 2.03

COc1cc2nccc(Oc3ccc(NC(=O)C4(C(=O)Nc5ccc(F)cc5)CC4)cc3)c2cc1OC [Cabozantinib]
SYNERGY SCORE (HCT116, DLD1 and SW480; [6]): 4.51

O=C(c1cc(Cc2n[nH]c(=O)c3ccccc23)ccc1F)N1CCN(C(=O)C2CC2)CC1 [Olaparib]
SYNERGY SCORE (HCT116, DLD1 and SW480; [6]): 1.46

N.N.[Cl][Pt][Cl] [Cisplatin]
SYNERGY SCORE (HCT116, DLD1 and SW480; [6]): 1.79

Nc1nc(F)nc2c1ncn2[C@@H]1O[C@H](COP(=O)(O)O)[C@@H](O)[C@@H]1O [Fludarabine phosphate]
SYNERGY SCORE (HCT116, DLD1 and SW480): 2.76

CN(C)C(=N)N=C(N)N [Metformin]
organoid growth, interaction with serine and glycine starvation ([3]; low dose metformin): antagonizes serine and glycine starvation; also recorded: did not have a synergistic effect | organoid growth, interaction with serine starvation ([3]; metformin 1000 uM): synergise with serine starvation | reactive oxygen species (ROS) levels ([4]; high dose metformin): increase with high dose metformin | reactive oxygen species (ROS) levels ([4]; low dose metformin): decrease with low dose metformin | cell number (DLD1 and SW480 cells; metformin at 20 µM): trend for increased cell number | synergistic effect with serine/glycine starvation (DLD1 and SW480 cells; metformin at concentrations found in vivo): did not have a synergistic effect | metformin levels in serum and tissue ([5]; 200 mg/kg/day in drinking water, LCMS): relatively low; also recorded: too low to potentiate the anti-cancer effect | average tumour area ([5]; metformin 200 mg/kg/day): without a substantial change in average tumour area | impact on systemic metabolism (serum glucose and lactate) ([5]; metformin 200 mg/kg/day): minimal impact on systemic metabolism; also recorded: little impact on systemic metabolism | SYNERGY SCORE (HCT116, DLD1 and SW480; [6]): 7.53

CO[C@H]1C[C@@H]2CC[C@@H](C)[C@@](O)(O2)C(=O)C(=O)N2CCCC[C@H]2C(=O)O[C@H]([C@H](C)C[C@@H]2CC[C@@H](OC(=O)C(C)(CO)CO)[C@H](OC)C2)CC(=O)[C@H](C)/C=C(\C)[C@@H](O)[C@@H](OC)C(=O)[C@H](C)C[C@H](C)/C=C/C=C/C=C/1C [Temsirolimus]
SYNERGY SCORE (HCT116, DLD1 and SW480; [6]): 3.90

CN(C)C/C=C/C(=O)Nc1cc2c(Nc3ccc(F)c(Cl)c3)ncnc2cc1O[C@H]1CCOC1 [Afatinib]
SYNERGY SCORE (HCT116, DLD1 and SW480; [6]): 1.18

C=C1C[C@@H]2[C@H](CC[C@]3(C)C(=O)CC[C@@H]23)[C@@]2(C)C=CC(=O)C=C12 [Exemestane]
SYNERGY SCORE (HCT116, DLD1 and SW480; [6]): 2.14
